Consider one compound from publication PMC11327210, “A first-in-human phase I trial of daily oral zelenirstat, a N-myristoyltransferase inhibitor, in patients with advanced solid tumors and relapsed/refractory B-cell lymphomas” (Investigational New Drugs, 2024).

The subject of series [1] is advanced solid tumors and relapsed/refractory (R/R) B-cell lymphomas. The series can be described thus: Anticancer activity in phase I patients (RECIST 1.1 / Lugano, Kaplan-Meier). It is filed as in vivo, human. The settings on record: for No. of patients with best response SD: evaluable patients n = 24. How it is done:
Tumor response assessments using CT imaging were performed every two cycles. RECIST 1.1 [11] or the Lugano Response Criteria for Lymphoma was used to determine tumor response and disease progression. For B-cell NHL patients with PET-CT at baseline, PET-CT was repeated after the sixth cycle to confirm complete response or disease progression. Patient archival specimens and blood samples were submitted for exploratory molecular analyses. Descriptive statistics were used for demographic, safety, and efficacy data. Categorical data were summarized using frequency counts and percentages. Time-to-event variables were analyzed by Kaplan-Meier methods. Weighted trajectory analysis for health outcomes used the Chauhan methodology.

The test system of series [2] is cell line derived xenografts from breast carcinomas. Details: method as in PMID 33398478. As to conditions: mice-bearing established human tumor xenografts; cited from earlier work.
Series [3] has as its system cell line and patient derived xenograft models of AML. The arrangement: method as in doi:10.1182/blood-2022-170544. The settings on record: cited from earlier work.
On the set-up of series [4]: method as in Pacylex, data on file. As to conditions: preclinical models; ref Pacylex, data on file; cited from earlier work.
Another series deals with CYP3A4. Details: method as in Pacylex, data on file. As to conditions: preclinical models; ref Pacylex, data on file; cited from earlier work.
In the next series the test system is off-target kinase. The arrangement: method as in doi:10.1182/blood-2019-124934. The settings on record: cited from earlier work.
Details of series [5]: method as in doi:10.1182/blood-2019-124934. As to conditions: multiple daily oral administration; cited from earlier work.
The next series relates to dogs. The settings on record: dog, in vivo; cited from earlier work.
Setting [6] is: MTD cohort 210 mg daily (n = 7) vs lower dose cohorts (n = 17).

Each structure is given as a SMILES string. Where only a bound is given, the exact number is not on record here.

Take `Cc1c(NS(=O)(=O)c2c(Cl)cc(-c3ccnc(N4CCNCC4)c3)cc2Cl)c(CC(C)C)nn1C` [zelenirstat]: the “Overall Survival (Kaplan-Meier)” value in series [1] (setting [6]) was “statistically significantly longer overall survival”. Also, in series [1] (setting [6]), the “Progression-Free Survival (Kaplan-Meier)” value is recorded as “statistically significantly longer PFS”. Besides, the objective responses entry in series [1] (all dose cohorts) was “No objective responses”. In addition, the “No. of patients with best response SD” value in series [1] (dose level 2: 40 mg, pancreatic adenocarcinoma) stood at 1; in series [1] (dose level 5: 140 mg, CRC), 1; in series [1] (dose level 6: 210 mg, CRC (2), ovarian (2), appendiceal carcinoma), 5; in series [1] (dose level 7: 280 mg, after DLT modified to 210 mg daily, bladder), 1. For the same compound, in series [1] (eight of 29 patients, all dose cohorts), the “Stable disease as best response, patients” value was determined as 28%. Besides, the “reduction in serum carcinoembryonic antigen (CEA) level” value in series [1] (one patient, metastatic colon adenocarcinoma, 210 mg) is 48%. This compound also had a duration on zelenirstat in series [1] (one patient, metastatic colon adenocarcinoma, 210 mg, SD, continuing) of no less than 420 days. Besides, the “reduction in sum of longest dimensions of the target lesions” value in series [1] (one patient, metastatic colon adenocarcinoma, 210 mg, ongoing) worked out at 13%. For the same compound, the “reduction in cancer antigen 125 (CA125)” value in series [1] (one patient, refractory ovarian cancer, 210 mg) came to 20%. Further, the results for the xenograft tumor response entry in series [2] and in series [3] were “tumor growth inhibition” and “similarly profound remissions”, respectively. In series [4], the plasma protein binding entry is on record as “highly bound to plasma protein”. In addition, in the series on CYP3A4, the metabolism result is “metabolized in the liver primarily by CYP3A4”. Besides, in the series on off-target kinase, the off-target kinase inhibition result was “no relevant off-target kinase inhibition”. Besides, the “dose limiting toxicity in GLP non-clinical safety testing” value in series [5] is listed as “diarrhea was dose limiting”. For the same compound, the “toxicities in formal toxicologic evaluation” value with dogs is “acute gastrointestinal and hematologic toxicities”.
